Measured values taken from ChEMBL document CHEMBL3286108, “Novel arylsulfonamide derivatives with 5-HT₆/5-HT₇ receptor antagonism targeting behavioral and psychological symptoms of dementia” (J Med Chem, 2014).
Each block holds one compound with its values, some of them ahead of it. Activity calls are given as the source filed them. The rule behind the calls is not given here.

How the values were obtained:
[1] = target: Muscarinic acetylcholine receptor M5 (Homo sapiens, UniProt P08912); assay: Displacement of [3H]4-DAMP from human recombinant M5 receptor expressed in CHO cells; type: cell-based
[2] = target: Muscarinic acetylcholine receptor M2 (Homo sapiens) (UniProt P08172); assay: Displacement of [3H]AF-DX384 from human recombinant M2 receptor expressed in CHO cells at 1 uM; type: cell-based
[3] = target: Muscarinic acetylcholine receptor M4 (Homo sapiens) (UniProt P08173); assay: Displacement of [3H]4-DAMP from human recombinant M4 receptor expressed in CHO cells at 1 uM; type: cell-based
[4] = target: T1, 5-hydroxytryptamine receptor 2A (Homo sapiens, UniProt P28223); assay: Antagonist activity at human recombinant 5-HT2A receptor assessed as inhibition of serotonin-induced inositol phosphate accumulation; type: functional
[5] = target: Alpha-1A adrenergic receptor (Homo sapiens) (UniProt P35348); assay: Antagonist activity at human recombinant alpha1A adrenoceptor assessed as inhibition of epinephrine-induced intracellular Ca2+ release; type: functional, cell-based
Rattus norvegicus [6] = assay: Antipsychotic-like activity in po dosed Wistar rat assessed as inhibition of MK-801-induced hyperlocomotion administered 45 mins prior to MK-801 challenge measured 60 mins post-drug administration; type: functional; conditions: read-out: MED
Rattus norvegicus [7] = assay: Antipsychotic-like activity in po dosed Wistar rat assessed as inhibition of DOI-induced head twitches measured after 60 mins; type: functional; conditions: 1 h, read-out: MED
Rattus norvegicus [8] = assay: Antidepressant-like activity in Wistar rat assessed as decrease in immobility time at 0.3 to 3 mg/kg, po after 60 mins by forced swimming test; type: functional; conditions: dose mg/kg 0.3-3
Rattus norvegicus [9] = assay: Induction of catalepsy in Wistar rat up to 100 mg/kg, po by bar test; type: organism-based; set-up: dose 100 mg/kg, route oral; conditions: in vivo
Rattus norvegicus [10] = assay: Toxicity in Wistar rat assessed as spontaneous locomotor activity up to 100 mg/kg, po measured after 15 mins; type: organism-based; set-up: dose 100 mg/kg, route oral; conditions: in vivo, 0.25 h
[11] = target: T2, 5-hydroxytryptamine receptor 7 (Homo sapiens, UniProt P34969); assay: biochemical; type: cell-based, CHO-K1
[12] = target: T1, 5-hydroxytryptamine receptor 2A; assay: biochemical; type: cell-based, CHO-K1
[13] = target: T3, Muscarinic acetylcholine receptor M1 (Homo sapiens) (UniProt P11229); assay: Displacement of [3H]pirenzepine from human recombinant M1 receptor expressed in CHO cells at 1 uM; type: cell-based
T3 sequence (whole entry): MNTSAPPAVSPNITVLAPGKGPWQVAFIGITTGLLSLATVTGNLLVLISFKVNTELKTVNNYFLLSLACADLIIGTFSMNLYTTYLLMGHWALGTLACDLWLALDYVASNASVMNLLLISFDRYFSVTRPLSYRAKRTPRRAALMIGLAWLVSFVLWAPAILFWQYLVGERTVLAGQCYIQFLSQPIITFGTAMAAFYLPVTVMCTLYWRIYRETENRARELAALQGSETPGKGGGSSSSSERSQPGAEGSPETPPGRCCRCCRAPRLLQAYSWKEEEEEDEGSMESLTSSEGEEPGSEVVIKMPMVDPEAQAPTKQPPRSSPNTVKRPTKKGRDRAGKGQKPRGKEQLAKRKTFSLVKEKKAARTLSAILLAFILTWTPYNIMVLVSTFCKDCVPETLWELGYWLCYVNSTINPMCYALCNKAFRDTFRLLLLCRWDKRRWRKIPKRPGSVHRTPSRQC

[14] = target: T4, 5-hydroxytryptamine receptor 6 (Homo sapiens, UniProt P50406); assay: Antagonist activity at human recombinant 5-HT6 receptor expressed in CHO-K1 cells assessed as inhibition of serotonin-induced response treated 15 to 30 mins before agonist challenge by luminescence analysis; type: cell-based
[15] = target: T2, 5-hydroxytryptamine receptor 7; assay: Antagonist activity at human 5-HT7 receptor expressed in CHO-K1 cells assessed as inhibition of serotonin-induced cAMP accumulation after 60 mins by TR-FRET immunoassay; type: functional, cell-based
[16] = target: T1, 5-hydroxytryptamine receptor 2A; assay: Antagonist activity at human recombinant 5-HT2A receptor expressed in CHO-K1 cells assessed as inhibition of alpha-methyl serotonin-induced response treated 15 to 30 mins before agonist challenge by luminescence analysis; type: cell-based
[17] = target: T4, 5-hydroxytryptamine receptor 6; assay: Agonist activity at human recombinant 5-HT6 receptor expressed in CHO-K1 cells by luminescence analysis; type: cell-based
[18] = target: T2, 5-hydroxytryptamine receptor 7; assay: Agonist activity at human 5-HT7 receptor expressed in CHO-K1 cells assessed as cAMP accumulation after 60 mins by TR-FRET immunoassay; type: functional, cell-based
[19] = target: T1, 5-hydroxytryptamine receptor 2A; assay: Agonist activity at human recombinant 5-HT2A receptor expressed in CHO-K1 cells by luminescence analysis; type: cell-based
D(2) dopamine receptor [20] = target: T5, D(2) dopamine receptor (Homo sapiens, UniProt P14416); assay: Agonist activity at human recombinant D2 receptor expressed in CHO-K1 cells by luminescence analysis; type: cell-based
D(3) dopamine receptor = D(3) dopamine receptor (Homo sapiens, UniProt P35462); assay: Displacement of [3H]methylspiperone from human recombinant D3 receptor expressed in CHO cells; type: cell-based
D(4) dopamine receptor = D(4) dopamine receptor (Homo sapiens, UniProt P21917); assay: Displacement of [3H]methylspiperone from human recombinant D4 receptor expressed in CHO cells; type: cell-based
Histamine H1 receptor = Histamine H1 receptor (Homo sapiens, UniProt P35367); assay: biochemical; type: cell-based, HEK293
[21] = target: Muscarinic acetylcholine receptor M1 (Homo sapiens, UniProt P11229); assay: biochemical; type: cell-based, CHO
[22] = target: T6, Muscarinic acetylcholine receptor M3 (Homo sapiens, UniProt P20309); conditions: CHO, 1 uM
[23] = target: Muscarinic acetylcholine receptor M5 (Homo sapiens) (UniProt P08912); conditions: CHO, 1 uM
[24] = target: T6, Muscarinic acetylcholine receptor M3; assay: biochemical
[25] = target: Muscarinic acetylcholine receptor M4 (Homo sapiens, UniProt P08173); assay: biochemical
[26] = target: Sodium-dependent serotonin transporter (Homo sapiens, UniProt P31645); assay: biochemical
[27] = target: T4, 5-hydroxytryptamine receptor 6; assay: biochemical
D(2) dopamine receptor [28] = target: T5, D(2) dopamine receptor; assay: biochemical
[29] = target: T4, 5-hydroxytryptamine receptor 6; assay: biochemical; remark: listed apart in the source
[30] = target: T2, 5-hydroxytryptamine receptor 7; assay: biochemical
[31] = target: T1, 5-hydroxytryptamine receptor 2A; assay: biochemical
[32] = target: 5-hydroxytryptamine receptor 1A (Homo sapiens, UniProt P08908); assay: biochemical
[33] = target: 5-hydroxytryptamine receptor 2C (Homo sapiens, UniProt P28335); assay: biochemical
D(2) dopamine receptor [34] = target: T5, D(2) dopamine receptor; assay: biochemical; remark: listed apart in the source
D(1A) dopamine receptor = D(1A) dopamine receptor (Homo sapiens, UniProt P21728); assay: biochemical
[35] = target: Alpha-1A adrenergic receptor (Homo sapiens, UniProt P35348); assay: biochemical
[36] = target: Alpha-2C adrenergic receptor (Homo sapiens, UniProt P18825); assay: biochemical
[37] = target: Muscarinic acetylcholine receptor M2 (Homo sapiens, UniProt P08172); assay: biochemical
[38] = target: T4, 5-hydroxytryptamine receptor 6
[39] = target: hERG (KCNH2) potassium channel (Homo sapiens, UniProt Q12809); assay: in vitro; conditions: CHO cells expressing human cloned ERG
Sequence of hERG (KCNH2) potassium channel (Q12809 whole entry): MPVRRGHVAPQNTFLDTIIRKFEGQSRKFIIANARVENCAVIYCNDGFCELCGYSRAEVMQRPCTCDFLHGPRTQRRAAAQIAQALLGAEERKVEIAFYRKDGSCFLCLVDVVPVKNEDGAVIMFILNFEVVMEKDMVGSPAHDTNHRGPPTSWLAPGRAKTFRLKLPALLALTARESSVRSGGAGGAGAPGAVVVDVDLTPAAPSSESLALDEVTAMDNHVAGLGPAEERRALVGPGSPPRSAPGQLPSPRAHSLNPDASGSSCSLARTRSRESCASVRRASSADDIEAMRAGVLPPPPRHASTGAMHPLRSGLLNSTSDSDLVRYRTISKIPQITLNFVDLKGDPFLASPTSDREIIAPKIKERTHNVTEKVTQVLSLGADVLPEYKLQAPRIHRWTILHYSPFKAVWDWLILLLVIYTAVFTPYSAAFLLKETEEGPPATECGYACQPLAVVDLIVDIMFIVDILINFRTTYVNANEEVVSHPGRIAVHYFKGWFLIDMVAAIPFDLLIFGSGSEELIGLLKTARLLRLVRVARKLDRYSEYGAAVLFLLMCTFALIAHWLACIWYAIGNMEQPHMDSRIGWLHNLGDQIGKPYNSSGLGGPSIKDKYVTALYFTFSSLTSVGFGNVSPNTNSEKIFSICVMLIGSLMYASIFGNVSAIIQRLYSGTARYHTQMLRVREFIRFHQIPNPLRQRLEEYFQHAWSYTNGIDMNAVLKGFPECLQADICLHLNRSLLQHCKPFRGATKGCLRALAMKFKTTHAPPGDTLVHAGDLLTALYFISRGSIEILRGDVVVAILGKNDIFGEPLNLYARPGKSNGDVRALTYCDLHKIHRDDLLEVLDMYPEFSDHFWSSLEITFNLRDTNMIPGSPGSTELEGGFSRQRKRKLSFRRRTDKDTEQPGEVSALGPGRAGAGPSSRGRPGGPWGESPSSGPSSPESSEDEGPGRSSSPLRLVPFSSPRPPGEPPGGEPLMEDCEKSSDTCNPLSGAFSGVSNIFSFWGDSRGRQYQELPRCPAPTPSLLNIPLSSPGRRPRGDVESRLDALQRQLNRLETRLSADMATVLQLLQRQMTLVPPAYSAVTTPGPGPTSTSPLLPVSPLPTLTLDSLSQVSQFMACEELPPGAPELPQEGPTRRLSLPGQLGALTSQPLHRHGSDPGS

T5 sequence (P14416 whole entry): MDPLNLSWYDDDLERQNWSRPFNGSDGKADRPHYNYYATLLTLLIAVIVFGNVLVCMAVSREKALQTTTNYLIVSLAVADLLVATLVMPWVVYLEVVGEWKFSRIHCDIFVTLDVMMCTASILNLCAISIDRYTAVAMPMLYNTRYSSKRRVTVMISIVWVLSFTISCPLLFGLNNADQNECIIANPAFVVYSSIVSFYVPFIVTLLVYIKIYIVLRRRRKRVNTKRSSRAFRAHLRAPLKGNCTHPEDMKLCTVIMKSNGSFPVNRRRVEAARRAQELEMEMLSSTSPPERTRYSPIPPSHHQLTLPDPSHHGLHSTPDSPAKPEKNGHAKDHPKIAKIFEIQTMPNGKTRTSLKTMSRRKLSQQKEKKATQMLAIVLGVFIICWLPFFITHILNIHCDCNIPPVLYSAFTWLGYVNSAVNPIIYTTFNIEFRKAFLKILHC
T2 sequence (P34969 whole entry): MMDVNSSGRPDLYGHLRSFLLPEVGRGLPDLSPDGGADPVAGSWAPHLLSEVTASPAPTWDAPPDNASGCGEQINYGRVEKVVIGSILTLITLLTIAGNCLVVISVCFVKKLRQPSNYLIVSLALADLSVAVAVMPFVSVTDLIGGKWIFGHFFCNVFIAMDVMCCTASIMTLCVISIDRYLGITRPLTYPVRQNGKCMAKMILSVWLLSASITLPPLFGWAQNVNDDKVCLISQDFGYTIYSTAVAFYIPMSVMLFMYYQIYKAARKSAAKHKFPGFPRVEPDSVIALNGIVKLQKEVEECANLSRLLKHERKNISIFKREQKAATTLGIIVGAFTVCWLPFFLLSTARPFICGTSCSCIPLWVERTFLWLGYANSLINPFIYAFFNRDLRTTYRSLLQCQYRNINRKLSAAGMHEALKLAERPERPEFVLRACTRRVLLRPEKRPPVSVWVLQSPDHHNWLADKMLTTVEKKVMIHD
T1 sequence (P28223 whole entry): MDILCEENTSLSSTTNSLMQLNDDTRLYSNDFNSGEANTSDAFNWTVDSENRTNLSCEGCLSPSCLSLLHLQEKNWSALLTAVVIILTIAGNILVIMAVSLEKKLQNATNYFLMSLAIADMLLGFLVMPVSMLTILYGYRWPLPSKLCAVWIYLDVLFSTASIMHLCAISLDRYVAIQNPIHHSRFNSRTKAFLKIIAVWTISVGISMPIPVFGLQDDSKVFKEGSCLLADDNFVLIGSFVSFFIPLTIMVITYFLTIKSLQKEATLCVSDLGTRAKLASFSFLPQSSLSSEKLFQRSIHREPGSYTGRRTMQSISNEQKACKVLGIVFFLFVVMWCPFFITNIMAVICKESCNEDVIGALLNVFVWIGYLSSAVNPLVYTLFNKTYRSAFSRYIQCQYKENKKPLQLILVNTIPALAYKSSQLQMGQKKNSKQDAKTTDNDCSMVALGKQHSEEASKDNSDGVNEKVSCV
T4 sequence (P50406 whole entry): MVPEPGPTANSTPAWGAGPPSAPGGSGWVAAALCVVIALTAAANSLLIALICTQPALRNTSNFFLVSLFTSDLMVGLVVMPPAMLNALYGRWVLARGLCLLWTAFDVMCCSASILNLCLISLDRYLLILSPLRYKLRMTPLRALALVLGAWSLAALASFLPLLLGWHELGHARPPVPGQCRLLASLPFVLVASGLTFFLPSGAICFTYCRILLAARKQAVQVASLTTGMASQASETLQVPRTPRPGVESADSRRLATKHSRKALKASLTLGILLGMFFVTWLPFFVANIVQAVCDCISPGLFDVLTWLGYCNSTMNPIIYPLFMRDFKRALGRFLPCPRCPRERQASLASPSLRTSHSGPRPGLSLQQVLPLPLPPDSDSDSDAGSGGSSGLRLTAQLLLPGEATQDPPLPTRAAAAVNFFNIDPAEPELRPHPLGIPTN
Sequence of 5-hydroxytryptamine receptor 2C (P28335 whole entry): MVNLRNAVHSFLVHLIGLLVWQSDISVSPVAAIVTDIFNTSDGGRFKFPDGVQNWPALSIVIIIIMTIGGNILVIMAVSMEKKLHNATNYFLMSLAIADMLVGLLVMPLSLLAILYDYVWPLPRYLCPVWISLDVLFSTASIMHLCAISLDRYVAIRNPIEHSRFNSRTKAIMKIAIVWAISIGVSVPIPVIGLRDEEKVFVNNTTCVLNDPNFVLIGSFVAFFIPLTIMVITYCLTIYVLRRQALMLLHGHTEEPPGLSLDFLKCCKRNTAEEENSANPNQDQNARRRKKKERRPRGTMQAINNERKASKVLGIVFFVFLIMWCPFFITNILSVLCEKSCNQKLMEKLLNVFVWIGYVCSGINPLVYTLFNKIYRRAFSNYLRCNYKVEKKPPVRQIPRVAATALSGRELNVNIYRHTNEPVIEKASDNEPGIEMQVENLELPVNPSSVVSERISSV
Sequence of Muscarinic acetylcholine receptor M5 (P08912 whole entry): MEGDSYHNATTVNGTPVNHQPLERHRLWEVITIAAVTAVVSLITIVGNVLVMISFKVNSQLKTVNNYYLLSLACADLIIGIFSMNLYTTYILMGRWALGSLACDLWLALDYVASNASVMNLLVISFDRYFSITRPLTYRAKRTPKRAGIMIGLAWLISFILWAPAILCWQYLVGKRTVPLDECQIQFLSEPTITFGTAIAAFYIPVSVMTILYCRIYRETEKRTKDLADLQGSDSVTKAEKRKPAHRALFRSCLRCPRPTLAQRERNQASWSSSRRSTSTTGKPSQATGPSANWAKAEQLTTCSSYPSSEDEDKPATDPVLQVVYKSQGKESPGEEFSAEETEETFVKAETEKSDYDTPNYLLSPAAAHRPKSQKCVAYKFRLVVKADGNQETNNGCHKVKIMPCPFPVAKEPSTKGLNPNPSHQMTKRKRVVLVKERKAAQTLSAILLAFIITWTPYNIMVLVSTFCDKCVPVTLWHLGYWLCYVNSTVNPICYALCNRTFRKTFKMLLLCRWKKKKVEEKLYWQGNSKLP
Sequence of D(4) dopamine receptor (P21917 whole entry): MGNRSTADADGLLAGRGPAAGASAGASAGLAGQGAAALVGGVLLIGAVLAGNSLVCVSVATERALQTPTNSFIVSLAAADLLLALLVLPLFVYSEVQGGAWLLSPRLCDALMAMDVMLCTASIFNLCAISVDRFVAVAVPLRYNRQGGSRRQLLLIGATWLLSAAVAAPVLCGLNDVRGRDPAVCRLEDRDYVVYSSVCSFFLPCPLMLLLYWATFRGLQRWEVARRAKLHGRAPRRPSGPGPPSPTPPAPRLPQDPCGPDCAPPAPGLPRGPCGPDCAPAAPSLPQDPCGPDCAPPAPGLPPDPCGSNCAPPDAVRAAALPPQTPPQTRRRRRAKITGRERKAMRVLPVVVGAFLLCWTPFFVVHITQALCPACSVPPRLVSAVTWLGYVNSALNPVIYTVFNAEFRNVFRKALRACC
Sequence of Muscarinic acetylcholine receptor M4 (P08173 whole entry): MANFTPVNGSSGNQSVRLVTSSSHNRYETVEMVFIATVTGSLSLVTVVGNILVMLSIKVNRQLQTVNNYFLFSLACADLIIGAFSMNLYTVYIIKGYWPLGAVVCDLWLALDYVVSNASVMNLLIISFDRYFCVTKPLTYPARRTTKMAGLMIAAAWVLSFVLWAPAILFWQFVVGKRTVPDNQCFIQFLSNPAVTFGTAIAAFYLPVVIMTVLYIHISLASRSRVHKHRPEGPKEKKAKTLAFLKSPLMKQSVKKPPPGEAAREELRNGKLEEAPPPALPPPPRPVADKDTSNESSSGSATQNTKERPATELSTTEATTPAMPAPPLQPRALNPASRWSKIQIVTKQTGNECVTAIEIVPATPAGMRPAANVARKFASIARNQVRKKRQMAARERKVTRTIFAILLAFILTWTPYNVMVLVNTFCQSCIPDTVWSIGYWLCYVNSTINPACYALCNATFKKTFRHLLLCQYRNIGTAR
Sequence of Muscarinic acetylcholine receptor M4 (Homo sapiens) (P08173 whole entry): as above
Sequence of Muscarinic acetylcholine receptor M5 (Homo sapiens) (P08912 whole entry): as the sequence (P08912 whole entry) above

Structure (SMILES): O=S(=O)(NCCCCN1CCC(c2noc3cc(F)ccc23)CC1)c1cc2ccccc2s1
Ki [1]: > 1000 nM | inhibition [2]: < 40% | inhibition [3]: < 40% | Kb [4]: 4.8 nM | Kb [5]: 1.8 nM | minimal effective dose (Rattus norvegicus [6]): 10 mg/kg | minimal effective dose (Rattus norvegicus [7]): 3 mg/kg | inhibition (INH) (Rattus norvegicus [8]): 20% | Activity (Rattus norvegicus [9]): Non-toxic | Activity (Rattus norvegicus [10]): Non-toxic | Ki [11]: 1.6 nM | Ki [12]: 0.6 nM | inhibition [13]: 21% | Kb [14]: 9.9 nM | Kb [15]: 7.8 nM | Kb [16]: 8.8 nM | Activity [17]: inactive | Activity [18]: inactive | Activity [19]: inactive | Activity (D(2) dopamine receptor [20]): inactive | Ki (D(3) dopamine receptor): 1.1 nM | Ki (D(4) dopamine receptor): 14 nM | Ki (Histamine H1 receptor): 69 nM | Ki [21]: > 1000 nM | inhibition [22]: < 40% | inhibition [23]: < 40% | Ki [24]: > 1000 nM | Ki [25]: > 1000 nM | IC50 [26]: > 1000 nM | Ki [27]: 6.5 nM | Ki (D(2) dopamine receptor [28]): 2 nM | Ki [29]: 4.1 nM | Ki [30]: 1.9 nM | Ki [31]: 0.5 nM | Ki [32]: 110 nM | Ki [33]: 540 nM | Ki (D(2) dopamine receptor [34]): 1.8 nM | Ki (D(1A) dopamine receptor): 3.3 nM | Ki [35]: 0.8 nM | Ki [36]: 1.9 nM | Ki [37]: > 1000 nM | Kb [38]: 16 nM

Structure (SMILES): O=S(=O)(NCCCN1CCC(c2noc3cc(F)ccc23)CC1)c1ccc(F)c(Cl)c1
Ki [11]: 0.9 nM | Ki [12]: 1.5 nM | inhibition [13]: -8% | Kb [14]: 7.4 nM | Kb [15]: 0.8 nM | Kb [16]: 7 nM | Activity [17]: inactive | Activity [18]: inactive | Activity [19]: inactive | Activity (D(2) dopamine receptor [20]): inactive | inhibition at 1 µM [39]: 32% | Ki [27]: 1.6 nM | Ki (D(2) dopamine receptor [28]): 3.7 nM

More lines, main results first:

Ki [1]: 0.48 nM
Structure (SMILES): C[N+]1(C)CCC(OC(=O)C(c2ccccc2)c2ccccc2)CC1 [4-DAMP]

Ki [33]: 0.6 nM
Structure (SMILES): COc1cc(OC)c(C(=O)CCCCN2CCC3(CC2)NC(=O)NC3=O)cc1NS(=O)(=O)c1ccc(C(F)(F)F)cc1 [RS-102,221]

Ki [11]: 0.6 nM | Ki [12]: 3.7 nM | inhibition [13]: 1% | Kb [14]: 2.5 nM | Kb [15]: 0.5 nM | Kb [16]: 15 nM | Activity [17]: inactive | Activity [18]: inactive | Activity [19]: inactive | Activity (D(2) dopamine receptor [20]): inactive | Ki [27]: 13 nM | Ki (D(2) dopamine receptor [28]): 16 nM
Structure (SMILES): Cc1cccc(S(=O)(=O)NCCCN2CCC(c3noc4cc(F)ccc34)CC2)c1
inhibition at 1 µM [39]: 52%
